From US20160067272A1, “METHODS FOR TREATING IMMUNE DISEASES” (priority 2013, published 2016)

Assays:
C57BL/6 mice = conditions: mouse, in vivo, ip
Procedure: C57BL/6 mice (8-10 weeks old) were daily administered 60 mg of NAD^+ or a placebo solution (PBS) intraperitoneally during 4 days. Blood and spleen were collected after 4 days of treatment. Absolute number of lymphocytes in the blood was determined using a hemocytometer (model 850 FS, Drew Scientific, Miami lakes, Fla.). To determine absolute lymphocyte number in spleens, cells were isolated and counted with a hemocytometer then stained with antibodies anti-CD4^+, CD3^+ or B220^+ and percentage was determined by flow analysis.

[1] = system: Human peripheral blood CD4+ T cells; assay: Human CD4+ T cells under Th1 polarizing conditions (flow cytometry); type: cell-based; conditions: increasing NAD+
Procedure: The inventors next investigated whether NAD^− regulates CD4^+ T cell differentiation in Th1 polarizing conditions. Isolated naïve CD4^+ T cells were cultured with anti-CD3/CD28 antibodies in presence of recombinant IL-12 and IL-2 cytokines and anti-IL4 antibody. […] In contrast to Th0 polarizing conditions, NAD^+ induced a robust IL-10 secretion (>3500 pg/ml) in Th1 cytokine environment (FIG. 1A). Furthermore, pro-inflammatory cytokines such as TNF-α and IL-6 were reduced by NAD^+ (FIG. 7C). […] Furthermore, the study tested whether NAD^+ promoted the shift of human CD4^+ T helper cells in Th1 polarizing conditions towards IL-10 cytokine production. Human peripheral blood CD4^| T cells were activated with anti-CD3/CD28 antibodies under Th1 polarizing conditions (recombinant IL-12 and IL-2 cytokines and anti-IL4 antibody) with increasing concentrations of NAD+. After 96 hours of culture, CD4^+IL-10^+IFNγ^+ cell frequency was assessed by flow cytometry analysis. […]
All recombinant cytokines and antibodies were purchased from EBIOSCIENCE except recombinant TGF-β cytokine (R&D SYSTEMS, Minneapolis, Minn.). After 96 hrs of culture supernatants and cells were collected and analyzed by ELISA and flow cytometry, respectively.

## NC(=O)c1ccc[n+]([C@@H]2O[C@H](COP(=O)([O-])OP(=O)(O)OC[C@H]3O[C@@H](n4cnc5c(N)ncnc54)[C@H](O)[C@@H]3O)[C@@H](O)[C@H]2O)c1 [NAD+, nicotinamide adenine dinucleotide]
C57BL/6 mice
  absolute number of circulating lymphocytes in the blood and spleens: did not affect
[1]
  IL-17A: moderate increase
[1]; flow cytometry
  IL-10 cytokine production by CD4+IFN-γ producing cells: robust IL-10 cytokine production
